Test [1] deals with T1, PRMT1 (Homo sapiens, UniProt Q99873). Description: PRMT1 RKO Cellular Target Engagement Assay (In-Cell Western, asymmetric di-methyl arginine). The test is classed as cell-based. Conditions: RKO cells, 48 hr compound incubation; read-out: RKO IC50 (PRMT-1 Target Engagement). The method in brief: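 RKO cells (1,000/well) received 1:3 serially diluted compound for 48 h at 37 °C, then were fixed, permeabilised and immunostained for asymmetric di-methyl arginine by In-Cell Western. The 800 nm antibody signal was normalised to CellTag 700 nm; IC50 from four-parameter logistic fit.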

The next test deals with PATC53 cells. Nature of the test: PATC53 Long Term Phenotypic Assay (14 days, crystal violet viability). The test is classed as cell-based. The following applies: 336 h. The method in brief:
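Cells seeded at 250 per well, allowed 24 h to settle, then treated with 1:3 serial dilutions of compound for 14 days at 37 °C, 5% CO2. Viability measured by crystal violet staining, solubilised in 10% HOAc, absorbance 590 nm; IC50 from four-parameter logistic fit.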

Another test deals with DOHH2 cells. Description: DOHH2 Long Term Phenotypic Assay (7 days, Cell Titer-Glo viability). The test is classed as cell-based. The following applies: Homo sapiens, DOHH-2, 168 h, Cell Titer-Glo 2.0. The method in brief:
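DOHH2 lymphoma cells (250 per well) in RPMI-1640 with 10% FBS were exposed to 1:3 serially diluted compounds for 7 days at 37 °C, 5% CO2. Viability was read by CellTiter-Glo 2.0 luminescence, and IC50 values came from four-parameter logistic fits.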
On the technique in general: Cellular ATP, detected with luciferase, serves as a proxy for viable cell number.

The target in test [2] is T1, PRMT1. Description: PRMT1 Enzymatic Assay (LANCE TR-FRET, methylation of histone H4 at Arg3). The test is classed as biochemical. Details: purchased SignalChem P365-380G. The following applies: PRMT1 1.5 nM, SAM 1 μM, biotinylated histone H4 (1-21) 25 nM; read-out: PRMT-1 IC50. The method in brief:
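PRMT1 (1.5 nM) preincubated 15 min with compound at room temperature, then reacted 1 h with 1 μM SAM and 25 nM biotinylated histone H4 (1-21) in 50 mM Hepes pH 8, 1 mM TCEP, 0.003% Tween-20. H4R3me detected by TR-FRET (665/620 nm ratio); IC50 from four-parameter logistic fit.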

pIC50: −log10 of the molar value.

T1 sequence (Q99873 whole entry): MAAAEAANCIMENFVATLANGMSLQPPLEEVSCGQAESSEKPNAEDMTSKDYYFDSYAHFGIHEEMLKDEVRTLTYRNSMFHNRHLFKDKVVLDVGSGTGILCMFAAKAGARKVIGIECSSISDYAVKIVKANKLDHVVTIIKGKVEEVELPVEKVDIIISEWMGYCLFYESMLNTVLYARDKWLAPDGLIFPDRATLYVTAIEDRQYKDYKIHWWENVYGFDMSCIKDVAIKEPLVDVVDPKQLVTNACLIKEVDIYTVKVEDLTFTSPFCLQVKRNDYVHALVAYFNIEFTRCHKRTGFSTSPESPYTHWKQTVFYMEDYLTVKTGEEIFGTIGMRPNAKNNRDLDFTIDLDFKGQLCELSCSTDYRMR

As usually defined, the pIC50 is the IC50 on a negative log10 scale, so that one unit is a factor of ten. Regarding `CNCCN(C)Cc1nn2c(c1C1CCC(COC)(COC)CC1)CN(C(=O)CC1CCC1)CC2` [Example 60, 1-(3-(4,4-bis(methoxy-methyl)cyclohexyl)-2-((methyl(2-(methylamino)-ethyl)amino)methyl)-6,7-dihydropyrazolo[1,5-a]-pyrazin-5(4H)-yl)-2-cyclobutylethan-1-one], the pIC50 at PRMT1 [1] was 6.46; in the test on PATC53 cells, 7.48; in the test on DOHH2 cells it was 7.09; at PRMT1 [2] it was 7.27.
For `COCC1(COC)CCC(c2c(CN(C)CCN)nn3c2CN(C(=O)C2CC(C)(C)C2)CC3)CC1` [Example 61, (2-(((2-aminoethyl)(methyl)-amino)methyl)-3-(4,4-bis-(methoxymethyl)cyclohexyl)-6,7-dihydropyrazolo[1,5-a]-pyrazin-5(4H)-yl)(3,3-dimethylcyclobutyl)-methanone], the pIC50 at PRMT1 [1] is 5.71; with PATC53 cells it was 7.17; in the test on DOHH2 cells, 6.65; at PRMT1 [2], 7.64.
For `CNCCN(C)Cc1nn2c(c1C1CCC(COC)(COC)CC1)CN(C(=O)C13CC(C)(C1)C3)CC2` [Example 63, (3-(4,4-bis(methoxymethyl)-cyclohexyl)-2-((methyl(2-(methylamino)ethyl)amino)-methyl)-6,7-dihydropyrazolo-[1,5-a]pyrazin-5(4H)-yl)(3-methylbicyclo[1.1.1]pentan-1-yl)methanone], the negative logarithm of the IC50 (pIC50) on PRMT1 [1] is 6.21; in the test on PATC53 cells, 7.80; in the test on DOHH2 cells, 7.17; on PRMT1 [2] it was 7.36.
Turning to `CNCCN(C)Cc1nn2c(c1C1CCC(COC)(COC)CC1)CN(C(=O)C(C)C(F)(F)F)CC2` (stereo not drawn) [Example 68, 1-(3-(4,4-bis(methoxy-methyl)cyclohexyl)-2-((methyl(2-(methylamino)-ethyl)amino)methyl)-6,7-dihydropyrazolo[1,5-a]-pyrazin-5(4H)-yl)-3,3,3-trifluoro-2-methylpropan-1-one], the pIC50 is 6.89 at PRMT1 [1], 7.39 with PATC53 cells, 7.15 with DOHH2 cells and 6.92 at PRMT1 [2].
On to `CNCCN(C)Cc1nn2c(c1C1CCC(COC)(COC)CC1)CN(C(=O)C1CC(C(F)(F)F)C1)CC2` (stereo not drawn) [Example 74, (3-(4,4-bis(methoxymethyl)-cyclohexyl)-2-((methyl(2-(methylamino)ethyl)amino)-methyl)-6,7-dihydropyrazolo-[1,5-a]pyrazin-5(4H)-yl)(3-(trifluoromethyl)cyclobutyl)-methanone], for which the negative-log IC50 (pIC50) at PRMT1 [1] is 6.85; in the test with PATC53 cells it was 7.27; in the test on DOHH2 cells, 7.03; at PRMT1 [2], 7.24.
Turning to `CNCCN(C)Cc1nn2c(c1C1CCC(COC)(COC)CC1)CN(C(=O)C1(C)CCCC1)CC2` [Example 80, (3-(4,4-bis(methoxymethyl)-cyclohexyl)-2-((methyl(2-(methylamino)ethyl)amino)-methyl)-6,7-dihydropyrazolo-[1,5-a]pyrazin-5(4H)-yl)(1-methylcyclopentyl)-methanone], the pIC50 at PRMT1 [1] is 6.94; with PATC53 cells, 7.15; with DOHH2 cells, 6.98; at PRMT1 [2], 7.04.

These data come from US20230416261A1, “ETHANEDIAMINE-HETEROCYCLE DERIVATIVES AS INHIBITORS OF PROTEIN ARGININE METHYLTRANSFERASES” (Board of Regents, The University of Texas System, priority 2021, published 2023).
